Test results published in article PMC2715142 (Lipids, 2008).
Where two headings read alike, the source gives them in different places.

Tests used:
[1] = tested on: Trypanosoma cruzi; assay: TC cellular growth inhibition; type: cell-based
[2] = target: T1, TCCYP51 (Trypanosoma cruzi, UniProt Q7Z1V1); type: binding; details: for spectral response: TCCYP51
[3] = tested on: TC infected cardiomyoblasts; assay: inhibition of TC multiplication within cardiomyoblasts; type: cell-based, Trypanosoma cruzi; details: 30 µM
[4] = target: I105F mutant of TCCYP51 (Trypanosoma cruzi, UniProt Q7Z1V1, I105F); type: binding
[5] = tested on: Trypanosoma brucei; assay: TB cellular growth inhibition; type: cell-based; details: read-out: EC50 / 50% cell growth inhibition for TB, form not stated
[6] = target: TBCYP51 (Trypanosoma brucei brucei, UniProt Q385E8); type: binding
[7] = target: T1, TCCYP51; details: cited from earlier work
[8] = target: T1, TCCYP51; details: cited from earlier work; remark: listed apart in the source
[9] = tested on: Trypanosoma cruzi; details: read-out: published EC50 values in TC cells; cited from earlier work
[10] = target: T1, TCCYP51; type: biochemical; details: T. cruzi CYP51, initial rate

With “32-Methylene cyclopropyl-lanost-7-enol [MCP]” the EC50 ([1]; read-out: 50% cell growth inhibition of TC, TC, form not stated) was 3 µM, the spectral response [2] was “type 1 spectral responses” and the “high spin content (low to high spin transition in the heme iron)” value ([2]; TCCYP51, maximal upon titration) was 41%. For the same compound, the “parasite cells cleared from TC infected cardiomyoblasts” value [3] was “more than 90%”, the “number of intracellular parasites” value ([3]; 72 h, trypanosomes pre-incubated with compound) was “dramatic decrease in the number of intracellular parasites” and the high spin form [4] was 87%. The spectral response [4] was “type 1 spectral responses”, the EC50 [5] was over 50 µM and the spectral response ([6]; TBCYP51) was “type 1 spectral responses”. For the same compound, the “high spin content (low to high spin transition in the heme iron)” value ([6]; TBCYP51, maximal upon titration) was 85%.
In the case of `CC(C)CCC[C@@H](C)[C@H]1CC[C@@]2(CN)C3=CCC4C(C)(C)[C@@H](O)CC[C@]4(C)[C@H]3CC[C@]12C` (stereo partly drawn) [AL7, 4,4-dimethyl-14α-aminomethyl-cholest-7-en-3β-ol], the spectral response [7] is given as “type 2 spectral responses” and the “I/E2 for the initial rate of TCCYP51 catalysis” value [8] is given as 11.
For `CC(C)CCC[C@@H](C)[C@H]1CC[C@@]2(CN)C3=C(CC[C@]12C)[C@@]1(C)CC[C@H](O)C(C)(C)C1CC3` (stereo partly drawn) [AL8, 4,4-dimethyl-14α-aminomethyl-cholest-8-en-3β-ol], the spectral response [7] is listed as “type 2 spectral responses” and the “I/E2 for the initial rate of TCCYP51 catalysis” value [8] is listed as 14.
Compound `O=C(NC(Cn1ccnc1)c1ccccc1)c1ccc(-c2ccc(Cl)cc2)cc1` (stereo not shown) [SDZ285604] has an EC50 ([1]; read-out: EC50 (50% cellular growth inhibition), amastigotes (intracellular form) of TC) of under 1 µM and an EC50 ([1]; read-out: EC50 (50% cellular growth inhibition), trypomastigotes (extracellular form) of TC) of under 1 µM.
For `O=C(Cn1ccnc1[N+](=O)[O-])NCc1ccccc1` [benznidazole], the spectral response [2] is listed as “does not induce spectral changes”, the EC50 [9] is listed as 25 to 50 µM and the “I/E2 (5 min), molar ratio inhibitor/enzyme which causes a twofold decrease in the activity” value [10] is listed as 42.
